From patent US11291756B2, “Acoustic separation for bioprocessing” (THE CHARLES STARK DRAPER LABORATORY, INC., priority 2016, dated 2022)

How the values were obtained:
Format in all cases: cell-based
platelets [1] = test: Platelet aggregate size produced by ADP; conditions: 10 μM ADP
platelets [2] = test: Acoustic separation of platelets from lymphocytes in blood buffy coat samples pretreated with a platelet activator
Description: Blood buffy coat samples from 3 donors (comprising lymphocytes and platelets) were subjected to acoustic energy, generally as described above. Prior to flowing the blood buffy coat samples through a microfluidic separation channel, the blood buffy coat samples were pretreated. Experimental samples were treated with 8 μM adenosine diphosphate (ADP) in buffer and control samples were treated with buffer only to a final dilution of approximately 1:3 buffy coat:buffer (about 10^9 cells/ml). The samples were incubated for 5 min before separation. The samples were flowed at 0.1 ml/min through a single polystyrene microchannel mounted on an oscillator using the methods described herein. The acoustic force displaced larger and more dense cells and platelet cell aggregates toward a center outlet (waste) while side outlets collected the lymphocyte-enriched product, generally as shown in FIG. 15. The products were compared to the input solution using both a hematology analyzer (Sysmex Corporation, Kobe, Hyogo Prefecture, Japan) to count cells and ELISA of the platelet-specific glycoprotein IIb/IIIa.

platelets [3] = test: Acoustic separation of platelets from lymphocytes in a blood sample pretreated with a platelet activator; conditions: adenosine diphosphate 2-50 μM, incubated 10-20 minutes
Description: A blood sample comprising lymphocytes and platelets was subjected to acoustic energy, generally as described above. Prior to flowing the blood sample through a microfluidic separation channel, the blood sample was pretreated by diluting with an additive comprising a platelet activator, adenosine diphosphate. Adenosine diphosphate was added at a concentration of 2-50 μM. The samples were incubated for 10-20 minutes before starting the acoustic separation.

SMILES: Nc1ncnc2c1ncn2[C@@H]1O[C@H](COP(=O)(O)OP(=O)(O)O)[C@@H](O)[C@H]1O [ADP, adenosine diphosphate]
- diameter of platelet aggregates (platelets [1]): about 10 μm
- platelet content by glycoprotein IIb/IIIa assay (ELISA) (platelets [2]; ADP 8 μM): significantly reduced platelet content
- reduction of platelet count in the product versus control (platelets [2]; ADP 8 μM): nearly ten-fold
- decrease of platelet count in the product compared to the starting material (platelets [2]; ADP 8 μM in buffer, 5 min incubation, buffy coat from 3 donors, hematology analyzer, buffer control 274% increase): 69%
- hematocrit of product (platelets [2]; ADP 8 μM, depleted from 10%): 4.5%
- platelet depletion on increasing the concentration (platelets [2]; ADP 32 μM versus 8 μM): did not further improve platelet depletion
- platelet contamination in the collected lymphocytes compared to controls (platelets [2]; ADP versus buffer-only controls): strongly reduced platelet contamination
- increase of lymphocyte purity (platelets [2]; with or without ADP added, input 41% to output 84%): 104%
- lymphocyte output purity (platelets [2]; with or without ADP added, input purity 41%): 84 % WBC
- response of platelets to the acoustic field (platelets [3]): responded more strongly to the acoustic field than individual platelets
